6 compounds from PMC12291464, “Modifying Antifungal Peptides as Safe Food Preservatives” (Journal of Agricultural and Food Chemistry, 2025) can be followed below.

≈ marks a conversion by molar mass, not a printed value. Read-outs that look alike come from different tables or passages of the source. Residues, ends and D or L forms follow the SMILES beside them. Bounds are passed on as bounds.

The test system of one assay is A. Niger. To be noted: 24 h. As to the method:
(§1) A1163 was grown on potato dextrose agar (PDA) medium at 37 °C for 5 days, and then the conidia were scraped and suspended in PBS with 0.025% (v/v) Tween 20, counted using a hemocytometer, and kept at 4 °C. isolated from peanuts and Pe21 (both kindly provided by Dr. Edward Sionov, ARO, Israel) were grown on PDA medium at 25 °C for 5 days, and then the conidia were scraped and suspended in PBS with 0.025% Tween 20 and kept at 4 °C. RP and methicillin-resistant (MRSA) were grown on LB agar plates, and individual colonies were picked and grown in Mueller–Hinton (MH) broth overnight at 37 °C. was grown on PDA medium at 30 °C, and individual colonies were picked and grown in yeast extract peptone dextrose (YPD) media overnight at 30 °C. All fungal and bacteria strains were maintained at −80 °C in 50% (v/v) glycerol stock.
(§2) For filamentous fungi strains, serial dilutions of 100 μL ranged from 100 to 0.78 μM for each peptide in a 96 well plate using RPMI1640 with 165 μM MOPS. A total of 80 μL of inoculum was suspended with a conidia load of 5 × 10^3 CFU/mL (final density of 2 × 10^3 CFU/mL), and 20 μL of resazurin was diluted in RPMI1640 solution of 0.02% [final concentration of 0.0002% (w/v)]. In the control, 100 μL of treatment was replaced by the same volume with medium, while the negative control was 180 μL of the medium and 20 μL of resazurin solution. Plates were incubated at 37 °C for and 25 °C for and for 24 h. The results were quantified by measuring absorbance at 570 nm with a microplate reader (Tecan). The mean absorbance values were used in subsequent calculations. The growth of resazurin reduction and growth inhibition was calculated using the following normalization: % growth=100−% reduction=abs of test agent−abs of untreated control/abs of reduced resazurin−abs of untreated control The MIC was defined as the lowest concentration of the peptide that inhibited fungal growth by 90%, allowing for only 10% of the normal growth. For bacterial and yeast strains studies, serial dilutions of 100 μL ranged from 100 to 0.78 μM for each peptide in a 96 well plate using MH media for bacteria and YPD for yeast. A total of 100 μL of the microbe in suitable media (5 × 10^5 CFU/mL) was inoculated in each well. In the untreated well (e.g., control), 100 μL of treatment was replaced by the same volume with medium, while in the negative control, media were only without microbes and peptides. After 24 h of incubation at 37 °C for bacteria and 30 °C for yeast, plates were read at 595 nm and MIC was defined as the lowest concentration of peptide that reduced the growth of the microbe to 10% growth.

For the next assay, the system named is A. fumigatus. To be noted: 24 h. On the procedure: as §1, §2
The next assay concerns P. expansum. Particulars: 24 h. As to the method:
as §1, §2

For the next assay, the system named is E. coli. On the procedure:
as §1, §2

For the next assay, the system named is MRSA. As to the method: as §1, §2
The mark [1] stands for this setting: RPMI1640 with MOPS, resazurin, absorbance 570 nm, MIC = lowest concentration inhibiting growth by 90%, average ± SE, 3 biological repeats in triplicates.
Where [2] appears, read: MH media, 5 × 10^5 CFU/mL, 24 h at 37 °C, read at 595 nm, MIC = growth reduced to 10%, average ± SE, 3 biological repeats in triplicates.

On to `C[C@H](N)C(=O)N[C@@H](CCCCN)C(=O)N[C@@H](CCCNC(=N)N)C(=O)N[C@@H](Cc1c[nH]cn1)C(=O)N[C@@H](Cc1c[nH]cn1)C(=O)NCC(=O)N[C@@H](Cc1ccc(O)cc1)C(=O)N[C@@H](CCCCN)C(=O)N[C@@H](CCCNC(=N)N)C(=O)N[C@@H](CCCCN)C(=O)N[C@@H](Cc1ccccc1)C(=O)N[C@@H](CCCCN)C(N)=O` [P-113 H12K] (H-AKRHHGYKRKFK-NH2), for which the “MIC Values, A. Niger” value against A. Niger (setting [1]) turned out to be 17 ± 4 µM (≈ 26.4 µg/mL). Besides, in the assay with A. fumigatus (setting [1]), the “MIC Values, A. fumigatus” value came out at 4 ± 1 µM (≈ 6.22 µg/mL). Also, the “MIC Values, P. expansum” value against P. expansum (setting [1]) was greater than 200 µM. In addition, the “MIC Values, E. coli” value against E. coli (setting [2]) was greater than 200 µM. Besides, in the assay on MRSA (setting [2]), the “MIC Values, MRSA” value was greater than 200 µM.
As to `CC[C@H](C)[C@H](NC(=O)[C@H](CCCCN)NC(=O)[C@H](CCCCN)NC(=O)[C@H](Cc1ccccc1)NC(=O)[C@H](CC(C)C)NC(=O)[C@H](CCCCN)NC(=O)[C@@H](N)Cc1ccccc1)C(=O)N[C@@H](CC(C)C)C(=O)N[C@@H](CCCCN)C(=O)N[C@@H](Cc1ccc(O)cc1)C(=O)N[C@@H](CC(C)C)C(N)=O` [BP100 F1K], the “MIC Values, A. Niger” value against A. Niger (setting [1]) is 42 ± 8 µM (≈ 60.5 µg/mL). In addition, in the assay on A. fumigatus (setting [1]), the “MIC Values, A. fumigatus” value was 10 ± 2 µM (≈ 14.4 µg/mL). Moreover, in the assay on P. expansum (setting [1]), the “MIC Values, P. expansum” value was 6 ± 0 µM (≈ 8.64 µg/mL). Also, the “MIC Values, E. coli” value against E. coli (setting [2]) is 3 ± 1 µM (≈ 4.32 µg/mL). In the assay with MRSA (setting [2]), the “MIC Values, MRSA” value was determined as 3 ± 1 µM (≈ 4.32 µg/mL).
For `CC[C@H](C)[C@H](N)C(=O)N[C@@H](CCCCN)C(=O)N[C@@H](CC(C)C)C(=O)N[C@@H](Cc1ccccc1)C(=O)N[C@@H](CCCCN)C(=O)N[C@@H](CCCCN)C(=O)N[C@H](C(=O)N[C@@H](CC(C)C)C(=O)N[C@@H](CCCCN)C(=O)N[C@@H](Cc1ccc(O)cc1)C(=O)N[C@@H](CC(C)C)C(N)=O)[C@@H](C)CC` [BP100 I1K], in the assay with A. Niger (setting [1]), the “MIC Values, A. Niger” value worked out at 33 ± 8 µM (≈ 46.4 µg/mL). For the same compound, the “MIC Values, A. fumigatus” value against A. fumigatus (setting [1]) worked out at 13 ± 0 µM (≈ 18.3 µg/mL). For the same compound, the “MIC Values, P. expansum” value in the assay with P. expansum (setting [1]) stood at 8 ± 2 µM (≈ 11.2 µg/mL). In addition, the “MIC Values, E. coli” value against E. coli (setting [2]) was 3 ± 1 µM (≈ 4.22 µg/mL). The “MIC Values, MRSA” value with MRSA (setting [2]) came to 3 ± 0 µM (≈ 4.22 µg/mL).
Turning to `CC[C@H](C)[C@H](NC(=O)[C@H](CCCCN)NC(=O)[C@H](CCCCN)NC(=O)[C@H](Cc1ccccc1)NC(=O)[C@H](CC(C)C)NC(=O)[C@H](CCCCN)NC(=O)[C@@H](N)CCCCN)C(=O)N[C@@H](CC(C)C)C(=O)N[C@@H](CCCCN)C(=O)N[C@@H](Cc1ccc(O)cc1)C(=O)N[C@@H](CC(C)C)C(N)=O` [BP100, reference compound], the “MIC Values, A. Niger” value in the assay on A. Niger (setting [1]) was 44 ± 8 µM (≈ 62.5 µg/mL). For the same compound, the “MIC Values, A. fumigatus” value against A. fumigatus (setting [1]) amounted to 6 ± 0 µM (≈ 8.53 µg/mL). For the same compound, the “MIC Values, P. expansum” value in the assay on P. expansum (setting [1]) came out at 13 ± 6 µM (≈ 18.5 µg/mL). Also, the “MIC Values, E. coli” value in the assay on E. coli is 3 ± 2 µM (≈ 4.26 µg/mL). Besides, in the assay on MRSA, the “MIC Values, MRSA” value worked out at 17 ± 4 µM (≈ 24.2 µg/mL).
`C[C@H](N)C(=O)N[C@@H](CCCCN)C(=O)N[C@@H](CCCNC(=N)N)C(=O)N[C@@H](CCCCN)C(=O)N[C@@H](Cc1c[nH]cn1)C(=O)NCC(=O)N[C@@H](Cc1ccc(O)cc1)C(=O)N[C@@H](CCCCN)C(=O)N[C@@H](CCCNC(=N)N)C(=O)N[C@@H](CCCCN)C(=O)N[C@@H](Cc1ccccc1)C(=O)N[C@@H](Cc1c[nH]cn1)C(N)=O` [P-113 H4K] (H-AKRKHGYKRKFH-NH2): in the assay with A. Niger, the “MIC Values, A. Niger” value is 14 ± 2 µM (≈ 21.8 µg/mL). In the assay on A. fumigatus, the “MIC Values, A. fumigatus” value stood at 33 ± 8 µM (≈ 51.3 µg/mL). Besides, in the assay with P. expansum, the “MIC Values, P. expansum” value is greater than 200 µM. The “MIC Values, E. coli” value in the assay with E. coli (24 h) was greater than 200 µM. For the same compound, in the assay on MRSA (24 h), the “MIC Values, MRSA” value is greater than 200 µM.
Consider `C[C@H](N)C(=O)N[C@@H](CCCCN)C(=O)N[C@@H](CCCNC(=N)N)C(=O)N[C@@H](CCCCN)C(=O)N[C@@H](CCCCN)C(=O)NCC(=O)N[C@@H](Cc1ccc(O)cc1)C(=O)N[C@@H](CCCCN)C(=O)N[C@@H](CCCNC(=N)N)C(=O)N[C@@H](CCCCN)C(=O)N[C@@H](Cc1ccccc1)C(=O)N[C@@H](CCCCN)C(N)=O` [P-113 H4,5,12K] (H-AKRKKGYKRKFK-NH2), for which, in the assay with A. Niger (setting [1]), the “MIC Values, A. Niger” value was 14 ± 4 µM (≈ 21.5 µg/mL). In addition, the “MIC Values, A. fumigatus” value with A. fumigatus (setting [1]) came out at 5 ± 1 µM (≈ 7.68 µg/mL). The “MIC Values, P. expansum” value with P. expansum (setting [1]) was greater than 200 µM. Besides, the “MIC Values, E. coli” value against E. coli (setting [2]) is greater than 200 µM. Besides, the “MIC Values, MRSA” value with MRSA (setting [2]) was greater than 200 µM.
